Measured values taken from ChEMBL document CHEMBL2384940, “Discovery of (R)-(2-fluoro-4-((-4-methoxyphenyl)ethynyl)phenyl) (3-hydroxypiperidin-1-yl)methanone (ML337), an mGlu3 selective and CNS penetrant negative allosteric modulator (NAM)” (J Med Chem, 2013).
Values after ≈ are worked out from the molar mass of the structure shown. One block for each molecule: values may come before it. Active and inactive are the calls of the source. The calls are words filed in the database; no cut-off is given here.

Legend:
[1] = target: Metabotropic glutamate receptor 3 (Rattus norvegicus, UniProt P31422); assay: Negative allosteric modulation of rat mGlu3 receptor transfected in human TREX cells assessed as inhibition of glutamate-induced calcium mobilization after 2.5 mins; format: functional, cell-based
[2] = target: Metabotropic glutamate receptor 2 (Rattus norvegicus, UniProt P31421); assay: Negative allosteric modulation of rat mGlu2 receptor transfected in HEK293 cells assessed as inhibition of glutamate-induced calcium mobilization after 2.5 mins; format: functional, cell-based
Homo sapiens = organism: Homo sapiens; assay: Selectivity ratio of IC50 for human mGlu2 receptor to IC50 for human mGlu3 receptor
[3] = target: Metabotropic glutamate receptor 3 (Rattus norvegicus) (UniProt P31422); assay: Negative allosteric modulation of rat mGlu3 receptor transfected in human TREX cells after 2.5 mins by calcium mobilization assay relative to glutamate; format: functional, cell-based; parameters: concentration or dose not given beside the values
[4] = target: Metabotropic glutamate receptor 3 (Rattus norvegicus) (UniProt P31422); assay: Negative allosteric modulation of rat mGlu3 receptor transfected in human TREX cells assessed as inhibition of glutamate/LY379268-induced calcium mobilization; format: functional, cell-based
[5] = target: Metabotropic glutamate receptor 7 (Homo sapiens) (UniProt Q14831); assay: Negative allosteric modulation of mGlu7 receptor (unknown origin) up to 30 uM
[6] = target: Metabotropic glutamate receptor 6 (Homo sapiens) (UniProt O15303); assay: Negative allosteric modulation of mGlu6 receptor (unknown origin) up to 30 uM
Plasma [7] = assay: Plasma protein binding in human at 5 uM after 4 hrs by LC/MS/MS analysis; format: ADME, cell-free
[8] = target: Sodium-dependent dopamine transporter (Homo sapiens) (UniProt Q01959); assay: Binding affinity to human DAT at 10 uM by radioligand displacement assay relative to control
[9] = target: Metabotropic glutamate receptor 4 (Homo sapiens) (UniProt Q14833); assay: Negative allosteric modulation of mGlu4 receptor (unknown origin) up to 30 uM
Plasma [10] = assay: Fraction unbound in human plasma at 5 uM after 4 hrs by LC/MS/MS analysis; format: ADME, cell-free
Plasma [11] = assay: Fraction unbound in mouse plasma at 5 uM after 4 hrs by LC/MS/MS analysis; format: ADME, cell-free
[12] = target: Metabotropic glutamate receptor 5 (Homo sapiens) (UniProt P41594); assay: Negative allosteric modulation of mGlu5 receptor (unknown origin) up to 30 uM
Cytochrome P450 1A2 = target: T1, Cytochrome P450 1A2 (Homo sapiens, UniProt P05177); assay: Inhibition of CYP1A2 in human liver microsomes using phenacetin as substrate incubated for 15 mins prior to NADPH addition measured after 8 mins by LC/MS/MS analysis; format: ADME, Microsome
T1 sequence (P05177 whole entry): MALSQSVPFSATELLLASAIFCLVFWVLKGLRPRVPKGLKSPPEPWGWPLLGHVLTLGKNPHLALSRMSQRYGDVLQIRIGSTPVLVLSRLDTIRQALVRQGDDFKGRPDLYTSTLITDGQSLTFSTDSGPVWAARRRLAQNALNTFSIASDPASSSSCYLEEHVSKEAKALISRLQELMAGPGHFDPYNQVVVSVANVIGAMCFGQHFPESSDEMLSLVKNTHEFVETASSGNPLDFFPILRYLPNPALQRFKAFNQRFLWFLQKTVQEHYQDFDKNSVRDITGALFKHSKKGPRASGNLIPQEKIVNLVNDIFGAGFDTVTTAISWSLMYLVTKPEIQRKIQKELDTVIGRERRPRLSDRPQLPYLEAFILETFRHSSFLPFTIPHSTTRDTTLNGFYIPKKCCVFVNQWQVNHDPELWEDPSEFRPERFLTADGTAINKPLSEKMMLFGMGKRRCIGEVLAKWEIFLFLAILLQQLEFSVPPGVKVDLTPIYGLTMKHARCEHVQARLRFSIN

[13] = target: Metabotropic glutamate receptor 1 (Homo sapiens) (UniProt Q13255); assay: Negative allosteric modulation of mGlu1 receptor (unknown origin) up to 30 uM
[14] = target: 5-hydroxytryptamine receptor 2B (Homo sapiens) (UniProt P41595); assay: Binding affinity to human 5-HT2B receptor at 10 uM by radioligand displacement assay relative to control
Cytochrome P450 2C9 = Cytochrome P450 2C9 (Homo sapiens, UniProt P11712); assay: Inhibition of CYP2C9 in human liver microsomes using diclofenac as substrate incubated for 15 mins prior to NADPH addition measured after 8 mins by LC/MS/MS analysis; format: ADME, Microsome
[15] = target: Metabotropic glutamate receptor 8 (Homo sapiens) (UniProt O00222); assay: Negative allosteric modulation of mGlu8 receptor (unknown origin) up to 30 uM
Liver microsomes = assay: Metabolic stability in human liver microsomes at 1 uM; format: ADME, Microsome
[16] = Solubility of the compound in PBS; format: physicochemical; settings: buffer
[17] = target: Metabotropic glutamate receptor 3 (Rattus norvegicus) (UniProt P31422); assay: Negative allosteric modulation of rat mGlu3 receptor transfected in human TREX cells assessed as non-competitive decrease in glutamate EC80; format: cell-based
Plasma [18] = assay: Plasma protein binding in mouse at 5 uM after 4 hrs by LC/MS/MS analysis; format: ADME, cell-free
Cytochrome P450 2D6 = Cytochrome P450 2D6 (Homo sapiens, UniProt P10635); assay: Inhibition of CYP2D6 in human liver microsomes using dextromethorphan as substrate incubated for 15 mins prior to NADPH addition measured after 8 mins by LC/MS/MS analysis; format: ADME, Microsome
Plasma [19] = assay: Fraction unbound in rat plasma at 5 uM after 4 hrs by LC/MS/MS analysis; format: ADME, cell-free

Chain of Metabotropic glutamate receptor 3 (P31422 whole entry): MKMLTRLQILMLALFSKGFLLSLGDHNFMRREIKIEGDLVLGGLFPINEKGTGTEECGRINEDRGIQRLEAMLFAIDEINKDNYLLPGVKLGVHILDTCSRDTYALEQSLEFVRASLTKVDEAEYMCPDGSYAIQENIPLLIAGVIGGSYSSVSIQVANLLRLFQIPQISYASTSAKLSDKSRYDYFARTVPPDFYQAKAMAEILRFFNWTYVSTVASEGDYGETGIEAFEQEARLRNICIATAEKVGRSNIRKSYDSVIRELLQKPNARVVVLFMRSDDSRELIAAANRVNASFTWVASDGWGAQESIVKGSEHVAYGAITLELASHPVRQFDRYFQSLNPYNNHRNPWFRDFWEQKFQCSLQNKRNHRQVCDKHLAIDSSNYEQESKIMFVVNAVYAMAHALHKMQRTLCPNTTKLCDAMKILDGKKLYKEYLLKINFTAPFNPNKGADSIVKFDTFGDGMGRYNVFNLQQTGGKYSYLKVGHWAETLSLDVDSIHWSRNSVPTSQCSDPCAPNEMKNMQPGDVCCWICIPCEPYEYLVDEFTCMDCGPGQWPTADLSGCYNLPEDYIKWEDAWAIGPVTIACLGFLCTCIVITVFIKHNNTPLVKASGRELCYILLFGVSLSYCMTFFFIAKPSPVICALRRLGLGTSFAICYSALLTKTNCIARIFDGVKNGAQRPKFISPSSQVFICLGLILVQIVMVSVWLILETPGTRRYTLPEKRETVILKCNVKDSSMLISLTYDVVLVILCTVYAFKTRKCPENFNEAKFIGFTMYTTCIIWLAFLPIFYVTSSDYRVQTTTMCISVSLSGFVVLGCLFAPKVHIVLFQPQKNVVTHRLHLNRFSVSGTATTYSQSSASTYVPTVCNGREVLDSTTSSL
Chain of Metabotropic glutamate receptor 2 (P31421 whole entry): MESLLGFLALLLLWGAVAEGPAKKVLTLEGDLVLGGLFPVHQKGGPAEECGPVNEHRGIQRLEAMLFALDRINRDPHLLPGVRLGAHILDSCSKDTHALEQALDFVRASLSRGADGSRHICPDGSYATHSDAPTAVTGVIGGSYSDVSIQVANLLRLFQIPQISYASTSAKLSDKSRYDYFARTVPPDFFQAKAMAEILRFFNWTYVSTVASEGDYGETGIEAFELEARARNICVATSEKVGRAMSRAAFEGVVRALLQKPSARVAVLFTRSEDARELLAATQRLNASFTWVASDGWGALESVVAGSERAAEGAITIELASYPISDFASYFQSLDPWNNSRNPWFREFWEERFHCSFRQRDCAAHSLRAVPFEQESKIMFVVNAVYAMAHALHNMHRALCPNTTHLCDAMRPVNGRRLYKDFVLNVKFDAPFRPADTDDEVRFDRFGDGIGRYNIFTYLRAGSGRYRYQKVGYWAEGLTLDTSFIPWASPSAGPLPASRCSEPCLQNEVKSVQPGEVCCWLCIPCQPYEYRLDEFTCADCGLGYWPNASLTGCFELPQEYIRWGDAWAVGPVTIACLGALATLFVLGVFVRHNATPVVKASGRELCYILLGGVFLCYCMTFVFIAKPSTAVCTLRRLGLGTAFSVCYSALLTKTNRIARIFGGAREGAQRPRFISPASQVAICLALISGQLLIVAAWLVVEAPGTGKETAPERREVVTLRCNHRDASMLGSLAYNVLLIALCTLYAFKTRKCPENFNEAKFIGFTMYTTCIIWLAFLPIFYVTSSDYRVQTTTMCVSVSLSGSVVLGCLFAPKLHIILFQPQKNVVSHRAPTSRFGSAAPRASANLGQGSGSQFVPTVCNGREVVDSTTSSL
Chain of Metabotropic glutamate receptor 3 (Rattus norvegicus) (P31422 23-879 limits assumed): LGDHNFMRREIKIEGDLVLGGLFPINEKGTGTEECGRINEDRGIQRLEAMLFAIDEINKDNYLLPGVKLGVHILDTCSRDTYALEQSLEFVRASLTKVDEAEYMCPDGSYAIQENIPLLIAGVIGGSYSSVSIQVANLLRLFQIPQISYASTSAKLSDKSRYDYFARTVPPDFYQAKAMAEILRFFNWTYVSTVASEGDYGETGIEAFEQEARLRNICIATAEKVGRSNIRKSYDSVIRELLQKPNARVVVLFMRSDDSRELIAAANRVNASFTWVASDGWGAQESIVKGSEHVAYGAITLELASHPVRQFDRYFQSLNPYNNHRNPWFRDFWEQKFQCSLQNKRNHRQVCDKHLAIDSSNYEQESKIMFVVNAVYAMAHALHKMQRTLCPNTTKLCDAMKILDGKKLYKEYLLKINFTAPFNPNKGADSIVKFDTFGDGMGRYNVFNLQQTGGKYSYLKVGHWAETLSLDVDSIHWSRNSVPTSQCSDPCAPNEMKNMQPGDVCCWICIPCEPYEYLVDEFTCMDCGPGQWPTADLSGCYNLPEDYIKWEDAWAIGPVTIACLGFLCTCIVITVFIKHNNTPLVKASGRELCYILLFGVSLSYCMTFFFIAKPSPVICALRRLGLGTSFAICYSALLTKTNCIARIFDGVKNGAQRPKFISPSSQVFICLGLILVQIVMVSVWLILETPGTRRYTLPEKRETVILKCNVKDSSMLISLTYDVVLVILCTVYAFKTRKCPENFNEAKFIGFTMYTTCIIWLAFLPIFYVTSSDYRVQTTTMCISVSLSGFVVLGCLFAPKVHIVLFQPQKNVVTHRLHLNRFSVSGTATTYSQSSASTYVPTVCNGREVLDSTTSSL
Chain of Metabotropic glutamate receptor 8 (Homo sapiens) (O00222 whole entry): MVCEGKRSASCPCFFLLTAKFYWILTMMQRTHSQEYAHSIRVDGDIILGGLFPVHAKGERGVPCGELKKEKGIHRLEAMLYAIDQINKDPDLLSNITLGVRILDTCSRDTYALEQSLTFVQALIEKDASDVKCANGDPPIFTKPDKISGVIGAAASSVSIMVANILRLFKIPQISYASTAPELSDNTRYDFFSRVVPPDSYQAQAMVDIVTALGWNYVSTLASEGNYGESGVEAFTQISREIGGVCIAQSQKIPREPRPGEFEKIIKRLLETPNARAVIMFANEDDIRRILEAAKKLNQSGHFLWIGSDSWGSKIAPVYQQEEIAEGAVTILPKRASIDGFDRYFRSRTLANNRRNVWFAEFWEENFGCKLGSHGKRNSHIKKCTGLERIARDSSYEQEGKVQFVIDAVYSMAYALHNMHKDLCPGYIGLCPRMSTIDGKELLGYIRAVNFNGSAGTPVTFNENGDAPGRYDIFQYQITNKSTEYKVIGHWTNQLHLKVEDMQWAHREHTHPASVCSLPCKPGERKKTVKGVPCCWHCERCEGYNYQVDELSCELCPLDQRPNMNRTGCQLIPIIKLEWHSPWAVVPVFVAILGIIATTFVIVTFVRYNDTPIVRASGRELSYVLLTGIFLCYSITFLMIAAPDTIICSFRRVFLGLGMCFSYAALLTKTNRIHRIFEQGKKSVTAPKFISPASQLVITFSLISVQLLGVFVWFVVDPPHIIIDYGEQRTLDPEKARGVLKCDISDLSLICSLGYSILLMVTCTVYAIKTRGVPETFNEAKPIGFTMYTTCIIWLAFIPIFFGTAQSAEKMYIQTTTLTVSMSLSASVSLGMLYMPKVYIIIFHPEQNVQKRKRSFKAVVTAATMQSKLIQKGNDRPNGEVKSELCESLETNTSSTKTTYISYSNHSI
Chain of Metabotropic glutamate receptor 7 (Homo sapiens) (Q14831 whole entry): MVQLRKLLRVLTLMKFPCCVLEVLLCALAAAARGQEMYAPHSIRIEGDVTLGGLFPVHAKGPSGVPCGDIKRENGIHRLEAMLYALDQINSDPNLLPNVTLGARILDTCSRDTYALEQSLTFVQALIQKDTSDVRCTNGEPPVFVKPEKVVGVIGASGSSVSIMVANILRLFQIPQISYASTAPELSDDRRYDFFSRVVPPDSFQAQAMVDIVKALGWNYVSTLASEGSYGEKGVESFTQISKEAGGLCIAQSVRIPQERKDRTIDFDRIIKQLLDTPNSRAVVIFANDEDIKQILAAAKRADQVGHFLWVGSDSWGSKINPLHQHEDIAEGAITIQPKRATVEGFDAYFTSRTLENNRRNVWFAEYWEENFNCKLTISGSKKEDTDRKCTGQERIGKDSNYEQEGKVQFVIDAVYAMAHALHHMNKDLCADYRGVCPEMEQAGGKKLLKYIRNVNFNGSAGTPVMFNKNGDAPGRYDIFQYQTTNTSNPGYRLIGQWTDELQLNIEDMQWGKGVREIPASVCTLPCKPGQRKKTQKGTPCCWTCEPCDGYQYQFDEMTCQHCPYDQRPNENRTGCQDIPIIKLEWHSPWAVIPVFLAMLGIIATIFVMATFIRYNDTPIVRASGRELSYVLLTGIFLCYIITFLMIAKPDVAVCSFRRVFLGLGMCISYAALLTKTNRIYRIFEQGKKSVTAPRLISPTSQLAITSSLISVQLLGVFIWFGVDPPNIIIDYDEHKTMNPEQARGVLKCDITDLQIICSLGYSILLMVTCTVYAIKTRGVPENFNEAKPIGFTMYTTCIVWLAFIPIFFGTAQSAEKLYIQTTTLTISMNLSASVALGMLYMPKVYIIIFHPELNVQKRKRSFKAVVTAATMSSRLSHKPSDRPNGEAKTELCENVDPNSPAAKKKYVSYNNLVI
Chain of Cytochrome P450 2D6 (P10635 whole entry): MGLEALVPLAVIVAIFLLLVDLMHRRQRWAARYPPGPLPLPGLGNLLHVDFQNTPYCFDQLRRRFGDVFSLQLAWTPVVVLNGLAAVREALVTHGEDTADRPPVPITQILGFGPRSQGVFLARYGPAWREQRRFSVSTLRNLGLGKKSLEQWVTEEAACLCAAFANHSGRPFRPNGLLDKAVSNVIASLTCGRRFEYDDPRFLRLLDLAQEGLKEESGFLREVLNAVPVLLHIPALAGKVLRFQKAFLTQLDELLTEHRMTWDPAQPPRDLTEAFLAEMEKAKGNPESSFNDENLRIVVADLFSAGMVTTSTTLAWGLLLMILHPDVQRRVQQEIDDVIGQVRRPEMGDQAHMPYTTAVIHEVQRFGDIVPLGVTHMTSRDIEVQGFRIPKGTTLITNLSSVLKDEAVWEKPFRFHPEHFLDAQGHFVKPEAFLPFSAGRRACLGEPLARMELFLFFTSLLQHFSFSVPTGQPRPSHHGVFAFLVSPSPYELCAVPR

- IC50 ([1]; read-out: IC50): > 10 µM
SMILES: O=C(c1ccc(C#Cc2ccc(O)cc2)cc1)N1CCC[C@@H](CO)C1

- IC50 ([1]; read-out: IC50): > 10 µM
SMILES: CC(C)Oc1ccc(C#Cc2ccc(C(=O)N3CCC[C@@H](CO)C3)cc2)cc1

- IC50 ([1]; read-out: IC50): > 10 µM
SMILES: CCOc1ccc(C#Cc2ccc(C(=O)N3CCC[C@@H](CO)C3)cc2)cc1

- IC50 ([1]; read-out: pIC50 (converted)): 27.5 µM
- IC50 [2]: > 30 µM
SMILES: COc1ccc(C#Cc2ccc(C(=O)N3CC[C@H](O)C3)cc2)cc1

- IC50 ([1]; read-out: IC50): > 10 µM
SMILES: COc1ccc(C#Cc2ccc(C(=O)N3CCC[C@@H](CO)C3)cc2)c(F)c1

- IC50 ([1]; read-out: IC50): > 10 µM
SMILES: O=C(c1ccc(C#Cc2ccc3c(c2)OCCO3)cc1)N1CCC[C@@H](CO)C1

SMILES: Clc1ccc(CN[C@H]2CCN(c3ncc(Br)cn3)C2)c(Cl)c1
- Ratio IC50 (Homo sapiens): 4

- IC50 ([1]; read-out: IC50): 0.45 µM
SMILES: [2H]C([2H])([2H])Oc1ccc(C#Cc2ccc(C(=O)N3CCC[C@@H](O)C3)c(F)c2)cc1

- IC50 ([1]; read-out: IC50): > 10 µM
SMILES: COc1ccc(C#Cc2ccc(C(=O)N3CCC[C@@H](CO)C3)cc2)cc1F

- IC50 ([1]; read-out: IC50): > 10 µM
SMILES: COc1ccc(C#Cc2ccc(C(=O)N3CCC[C@@H](CO)C3)cc2)c(F)c1F

- IC50 ([1]; read-out: pIC50 (converted)): 5.5 µM
- IC50 [2]: > 30 µM
- Activity [3]: 1.7%
SMILES: COc1ccc(C#Cc2ccc(C(=O)N3CC4CCC(O)C4C3)cc2)cc1 (stereo unspecified)

- IC50 ([1]; read-out: pIC50 (converted)): 2.75 µM
- IC50 [2]: > 30 µM
- Activity [3]: 1.6%
SMILES: COc1ccc(C#Cc2ccc(C(=O)N3CC4CCC(=O)C4C3)cc2)cc1 (stereo unspecified)

- IC50 ([1]; read-out: IC50): > 10 µM
SMILES: O=C(c1ccc(C#Cc2ccc(OC(F)(F)F)cc2)cc1)N1CCC[C@@H](CO)C1

- IC50 ([1]; read-out: IC50): > 10 µM
SMILES: COc1ccc(C#Cc2ccc(C(=O)N3CCC[C@@H](CO)C3)cc2)cn1

- IC50 ([1]; read-out: IC50): 0.76 µM
- IC50 [2]: > 30 µM
- Activity [3]: 0.4%
SMILES: COc1ccc(C#Cc2ccc(C(=O)N3CCCC(O)C3)cc2)cc1 (racemic)

- IC50 ([1]; read-out: IC50): > 10 µM
SMILES: O=C(c1ccc(C#Cc2ccc(Oc3ccccc3)cc2)cc1)N1CCC[C@@H](CO)C1

- IC50 ([1]; read-out: pIC50 (converted)): 7.59 µM
- IC50 [2]: > 30 µM
- Activity [3]: 1.6%
SMILES: COc1ccc(C#Cc2ccc(C(=O)NC(C)CO)cc2)cc1 (stereo unspecified)

- IC50 ([1]; read-out: IC50): > 10 µM
SMILES: CSc1ccc(C#Cc2ccc(C(=O)N3CCC[C@@H](CO)C3)cc2)cc1

- IC50 ([1]; read-out: pIC50 (converted)): 10.2 µM
- IC50 [2]: > 30 µM
- Activity [3]: 0%
SMILES: COc1ccc(C#Cc2ccc(C(=O)N3CC[C@@H](O)C3)cc2)cc1

- IC50 ([1]; read-out: IC50): 0.711 µM
- IC50 [2]: > 30 µM
- Activity [3]: -0.13%
SMILES: COc1ccc(C#Cc2ccc(C(=O)N3CCCC(C)(O)C3)cc2)cc1 (stereo unspecified)

SMILES: COc1ccc(C#Cc2ccc(C(=O)N3CCC[C@@H](O)C3)c(F)c2)cc1
- Activity [4]: Active
- IC50 ([1]; read-out: IC50): 0.593 µM
- IC50 ([1]; read-out: pIC50 (converted)): 0.603 µM
- Activity [5]: inactive
- IC50 [2]: > 30 µM
- Activity [6]: inactive
- PPB (Plasma [7]): 97%
- inhibition [8]: 71%
- Activity [9]: inactive
- Fu (Plasma [10]): 0.03
- Fu (Plasma [11]): 0.027
- Activity [12]: inactive
- IC50 (Cytochrome P450 1A2): > 30 µM
- Activity [3]: 1.9%
- Activity [13]: inactive
- inhibition [14]: 74%
- IC50 (Cytochrome P450 2C9): > 30 µM
- Activity [15]: inactive
- Stability (Liver microsomes): Unstable
- solubility [16]: 7.8 µM (≈ 2.76 µg/mL)
- Activity [17]: Active
- PPB (Plasma [18]): 97%
- IC50 (Cytochrome P450 2D6): > 30 µM
- Fu (Plasma [19]): 0.005

- IC50 ([1]; read-out: pIC50 (converted)): 7.59 µM
- IC50 [2]: > 30 µM
- Activity [3]: 0%
SMILES: COc1ccc(C#Cc2ccc(C(=O)N3CCC(CO)C3)cc2)cc1 (stereo unspecified)

- IC50 ([1]; read-out: IC50): 0.456 µM
- IC50 [2]: > 30 µM
- Activity [3]: 1.64%
SMILES: COc1ccc(C#Cc2ccc(C(=O)N3CCC[C@@H](O)C3)cc2F)cc1

- IC50 ([1]; read-out: IC50): 0.31 µM
SMILES: [2H]C([2H])([2H])Oc1ccc(C#Cc2ccc(C(=O)N3CCC[C@@H](O)C3)cc2)cc1

- IC50 ([1]; read-out: pIC50 (converted)): 5.5 µM
- IC50 [2]: > 30 µM
- Activity [3]: 0%
SMILES: COc1ccc(C#Cc2ccc(C(=O)N3CCCC(OC)C3)cc2)cc1 (stereo unspecified)

- IC50 ([1]; read-out: IC50): > 10 µM
SMILES: COc1ccc(C#Cc2ccc(C(=O)N3CCC[C@@H](CO)C3)cc2)cc1

- IC50 ([1]; read-out: IC50): 0.65 µM
- IC50 [2]: > 30 µM
- Activity [3]: 2%
SMILES: COc1ccc(C#Cc2ccc(C(=O)N3CCC[C@@H](O)C3)cc2)cc1

- IC50 ([1]; read-out: IC50): > 10 µM
SMILES: COc1ccc(-c2nnc(-c3ccc(C(=O)N4CCC[C@@H](CO)C4)cc3)o2)cc1

- IC50 ([1]; read-out: IC50): 1.1 µM
- IC50 [2]: > 30 µM
- Activity [3]: 1.7%
SMILES: COc1ccc(C#Cc2ccc(C(=O)N3CCC[C@H](O)C3)cc2)cc1

- IC50 ([1]; read-out: IC50): > 10 µM
SMILES: O=C(c1ccc(C#Cc2ccc3c(c2)OCO3)cc1)N1CCC[C@@H](CO)C1
